The test system of assay [1] is methicillin resistant Staphylococcus aureus (MRSA) biofilm. To be noted: approximate peptide concentration […] (around 3 μg/ml); compared to untreated samples. In a few lines:
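Peptide was present from inoculation onward, with bacteria seeded at 1/100 from overnight cultures into BM2 biofilm medium or Luria Broth. Crystal violet staining of surface-attached cells (A595) quantified biofilm reduction at 22–46 h. K. pneumoniae was additionally screened in a real-time Bioflux flow device for some peptides.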

The subject of assay [2] is human peripheral blood mononuclear cells (MCP-1). Put plainly: SPOT-synthesized derivative screen: production of chemokine MCP-1. The note with it: Table 12, No LPS, human PBMC, peptide at ~18-24 μM; for MCP1: background subtracted 139 (HH2 derivatives), 170 (1018 derivatives), 242 (1002 and hybrid peptides) pg/ml. In kind it is cell-based. The essentials: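 MCP-1 was quantified by capture ELISA in cleared culture supernatants of treated human peripheral blood mononuclear cells. Cells came from heparinized volunteer blood via Ficoll gradient and were seeded at 0.75 to 1×10^6 cells/ml (37 °C, 5% CO2).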

The test system of assay [3] is LPS-stimulated human peripheral blood mononuclear cells (IL1-β). The assay is classed as cell-based. To be noted: Table 12, cells stimulated with 10 ng/ml LPS; for IL1β Production: LPS alone 1313 (HH2 derivatives), 1927 (1018 derivatives), 2455 (1002 and hybrid peptides) pg/ml.

The text below walks through data of patent publication US20190315823A1, “SMALL CATIONIC ANTI-BIOFILM AND IDR PEPTIDES” (priority 2013, published 2019).

Ends that are not written are not given here.

Consider “1002-G2: single substituted 1002 peptide (VGRWLIVWRIRK-NH2) [Peptide 1002-G2]”, for which the “% Biofilm inhibition” value in assay [1] was 74%. In assay [2], the “Fold increase in MCP1 cf. untreated cells” value (from here on “Fold increase”) is 4.7 and the “MCP1” value came to 891.9 pg/mL. Also, in assay [3], the “Fold change in IL1β relative to no peptide LPS stimulated cells” value worked out at 0.05 and the “IL1β Production” value turned out to be 127 pg/mL.

For “HH2-R1: single substituted HH2 peptide (RQLRIRVAVIRA-NH2)”, in assay [1], the “% Biofilm inhibition” value amounted to 53%. Further, in assay [2], the “Fold increase” value came to 25 and the “MCP1” value came to 4034 pg/mL. Moreover, in assay [3], the “Fold change in IL1β relative to no peptide LPS stimulated cells” value is reported as 1.50 and the “IL1β Production” value stood at 1965 pg/mL.

As to “HH2-K4: single substituted HH2 peptide (VQLKIRVAVIRA-NH2)”, in assay [1], the “% Biofilm inhibition” value was 65%. In assay [2], the “Fold increase” value is 10 and the “MCP1” value came to 1553 pg/mL. Also, in assay [3], the “Fold change in IL1β relative to no peptide LPS stimulated cells” value came out at 0.58 and the “IL1β Production” value stood at 759 pg/mL.

For “1002-A1: single substituted 1002 peptide (AQRWLIVWRIRK-NH2) [Peptide 1002-A1]”, the “% Biofilm inhibition” value in assay [1] was found to be 55%. In assay [2], the “Fold increase” value was 19.8 and the “MCP1” value is 4559.2 pg/mL. Also, in assay [3], the “Fold change in IL1β relative to no peptide LPS stimulated cells” value was found to be 0.05 and the “IL1β Production” value was found to be 127 pg/mL.

Regarding “1002-A12: single substituted 1002 peptide (VQRWLIVWRIRA-NH2) [Peptide 1002-A12]”, in assay [1], the “% Biofilm inhibition” value was determined as 37%. Further, in assay [2], the “Fold increase” value was 1.4 and the “MCP1” value was found to be 91.3 pg/mL. Also, in assay [3], the “Fold change in IL1β relative to no peptide LPS stimulated cells” value turned out to be 0.05 and the “IL1β Production” value is 127 pg/mL.

As for “HH2-R9: single substituted HH2 peptide (VQLRIRVARIRA-NH2)”, in assay [1], the “% Biofilm inhibition” value stood at 65%. In addition, in assay [2], the “Fold increase” value was determined as 3.4 and the “MCP1” value was 406 pg/mL. In addition, in assay [3], the “Fold change in IL1β relative to no peptide LPS stimulated cells” value is recorded as 1.60 and the “IL1β Production” value worked out at 2099 pg/mL.

Turning to “1018-G8: single substituted 1018 peptide (VRLIVAVGIWRR-NH2) [Peptide 1018-G8]”, the “% Biofilm inhibition” value in assay [1] was 54%. For the same substance, in assay [2], the “Fold increase” value amounted to 1.3 and the “MCP1” value turned out to be 57 pg/mL. Also, in assay [3], the “Fold change in IL1β relative to no peptide LPS stimulated cells” value was determined as 0.10 and the “IL1β Production” value is 127 pg/mL.

Regarding “1002-L6: single substituted 1002 peptide (VQRWLLVWRIRK-NH2) [Peptide 1002-L6]”, the “% Biofilm inhibition” value in assay [1] is 52%. Besides, in assay [2], the “Fold increase” value is 1.3 and the “MCP1” value is 68.0 pg/mL. In assay [3], the “Fold change in IL1β relative to no peptide LPS stimulated cells” value came out at 0.05 and the “IL1β Production” value was 127 pg/mL.

As for “1018-G7: single substituted 1018 peptide (VRLIVAGRIWRR-NH2) [Peptide 1018-G7]”, the “% Biofilm inhibition” value in assay [1] is on record as 47%. Also, in assay [2], the “Fold increase” value was 25 and the “MCP1” value is 4098 pg/mL. In assay [3], the “Fold change in IL1β relative to no peptide LPS stimulated cells” value came out at 1.23 and the “IL1β Production” value came out at 1610 pg/mL.

For the substance “HH2-I7: single substituted HH2 peptide (VQLRIRIAVIRA-NH2)”, the “% Biofilm inhibition” value in assay [1] is given as 69%. Further, in assay [2], the “Fold increase” value was found to be 8.8 and the “MCP1” value worked out at 1332 pg/mL. For the same substance, in assay [3], the “Fold change in IL1β relative to no peptide LPS stimulated cells” value was 0.68 and the “IL1β Production” value stood at 897 pg/mL.

Turning to “1018-K11: single substituted 1018 peptide (VRLIVAVRIWKR-NH2) [Peptide 1018-K11]”, the “% Biofilm inhibition” value in assay [1] is on record as 68%. In assay [2], the “Fold increase” value is reported as 9.3 and the “MCP1” value is 1419 pg/mL. In assay [3], the “Fold change in IL1β relative to no peptide LPS stimulated cells” value was found to be 0.13 and the “IL1β Production” value was 170 pg/mL.

Take “1018-Q7: single substituted 1018 peptide (VRLIVAQRIWRR-NH2) [Peptide 1018-Q7]”: the “% Biofilm inhibition” value in assay [1] is reported as 28%. In assay [2], the “Fold increase” value was determined as 0.7 and the “MCP1” value was -54 pg/mL. Moreover, in assay [3], the “Fold change in IL1β relative to no peptide LPS stimulated cells” value is listed as 1.04 and the “IL1β Production” value came out at 1368 pg/mL.

With “1018-V11: single substituted 1018 peptide (VRLIVAVRIWVR-NH2) [Peptide 1018-V11]”, the “% Biofilm inhibition” value in assay [1] is 29%. Moreover, in assay [2], the “Fold increase” value is listed as 1.0 and the “MCP1” value was 2 pg/mL. Also, in assay [3], the “Fold change in IL1β relative to no peptide LPS stimulated cells” value was determined as 0.94 and the “IL1β Production” value was found to be 1240 pg/mL.

As for “1002-A6: single substituted 1002 peptide (VQRWLAVWRIRK-NH2) [Peptide 1002-A6]”, the “% Biofilm inhibition” value in assay [1] is 28%. Also, in assay [2], the “Fold increase” value turned out to be 3.0 and the “MCP1” value was 485.3 pg/mL. For the same substance, in assay [3], the “Fold change in IL1β relative to no peptide LPS stimulated cells” value came out at 0.16 and the “IL1β Production” value was determined as 382 pg/mL.

In the case of “HH2-L10: single substituted HH2 peptide (VQLRIRVAVLRA-NH2)”, the “% Biofilm inhibition” value in assay [1] is on record as 63%. Moreover, in assay [2], the “Fold increase” value amounted to 21 and the “MCP1” value turned out to be 3338 pg/mL. Further, in assay [3], the “Fold change in IL1β relative to no peptide LPS stimulated cells” value was found to be 1.04 and the “IL1β Production” value was determined as 1359 pg/mL.

As for “1002-V5: single substituted 1002 peptide (VQRWVIVWRIRK-NH2) [Peptide 1002-V5]”, the “% Biofilm inhibition” value in assay [1] is on record as 75%. Further, in assay [2], the “Fold increase” value came out at 38.2 and the “MCP1” value worked out at 9022.6 pg/mL. In assay [3], the “Fold change in IL1β relative to no peptide LPS stimulated cells” value is recorded as 0.18 and the “IL1β Production” value is 440 pg/mL.

Take “HH2-V2: single substituted HH2 peptide (VVLRIRVAVIRA-NH2)”: the “% Biofilm inhibition” value in assay [1] worked out at 77%. Further, in assay [2], the “Fold increase” value amounted to 24 and the “MCP1” value turned out to be 3945 pg/mL. Besides, in assay [3], the “Fold change in IL1β relative to no peptide LPS stimulated cells” value turned out to be 0.97 and the “IL1β Production” value amounted to 1267 pg/mL.

As to “HH2-I2: single substituted HH2 peptide (VILRIRVAVIRA-NH2)”, the “% Biofilm inhibition” value in assay [1] was determined as 54%. Also, in assay [2], the “Fold increase” value came out at 11 and the “MCP1” value turned out to be 1748 pg/mL. Also, in assay [3], the “Fold change in IL1β relative to no peptide LPS stimulated cells” value is 0.81 and the “IL1β Production” value is 1060 pg/mL.

With “HH2-V12: single substituted HH2 peptide (VQLRIRVAVIRV-NH2)”, the “% Biofilm inhibition” value in assay [1] worked out at 65%. Further, in assay [2], the “Fold increase” value is listed as 33 and the “MCP1” value came to 5492 pg/mL. Further, in assay [3], the “Fold change in IL1β relative to no peptide LPS stimulated cells” value came to 0.85 and the “IL1β Production” value is 1119 pg/mL.

Turning to “HH2-A3: single substituted HH2 peptide (VQARIRVAVIRA-NH2)”, the “% Biofilm inhibition” value in assay [1] came out at 52%. Also, in assay [2], the “Fold increase” value was 1.3 and the “MCP1” value is 59 pg/mL. Further, in assay [3], the “Fold change in IL1β relative to no peptide LPS stimulated cells” value is recorded as 1.44 and the “IL1β Production” value is 1886 pg/mL.

For “1018-L8: single substituted 1018 peptide (VRLIVAVLIWRR-NH2) [Peptide 1018-L8]”, in assay [1], the “% Biofilm inhibition” value worked out at 40%. In addition, in assay [2], the “Fold increase” value stood at 0.5 and the “MCP1” value was -83 pg/mL. In assay [3], the “Fold change in IL1β relative to no peptide LPS stimulated cells” value amounted to 0.42 and the “IL1β Production” value turned out to be 553 pg/mL.

Consider “1002-I8: single substituted 1002 peptide (VQRWLIVIRIRK-NH2) [Peptide 1002-I8]”, for which the “% Biofilm inhibition” value in assay [1] was found to be 69%. Moreover, in assay [2], the “Fold increase” value is 6.7 and the “MCP1” value amounted to 1393.2 pg/mL. Moreover, in assay [3], the “Fold change in IL1β relative to no peptide LPS stimulated cells” value is 0.06 and the “IL1β Production” value was 144 pg/mL.

Take “1002-W5: single substituted 1002 peptide (VQRWWIVWRIRK-NH2) [Peptide 1002-W5]”: in assay [1], the “% Biofilm inhibition” value is given as 76%. In addition, in assay [2], the “Fold increase” value came out at 0.9 and the “MCP1” value was -36.2 pg/mL. In assay [3], the “Fold change in IL1β relative to no peptide LPS stimulated cells” value was 0.05 and the “IL1β Production” value came out at 127 pg/mL.

“HH2-K2: single substituted HH2 peptide (VKLRIRVAVIRA-NH2)”: the “% Biofilm inhibition” value in assay [1] is 69%. In assay [2], the “Fold increase” value was determined as 7.9 and the “MCP1” value came out at 1168 pg/mL. Besides, in assay [3], the “Fold change in IL1β relative to no peptide LPS stimulated cells” value was 0.71 and the “IL1β Production” value was determined as 937 pg/mL.

Regarding “1002-I9: single substituted 1002 peptide (VQRWLIVWIIRK-NH2) [Peptide 1002-I9]”, the “% Biofilm inhibition” value in assay [1] was 53%. Further, in assay [2], the “Fold increase” value amounted to 3.5 and the “MCP1” value was 605.9 pg/mL. In assay [3], the “Fold change in IL1β relative to no peptide LPS stimulated cells” value came out at 0.06 and the “IL1β Production” value was 158 pg/mL.
